Measurements taken from patent publication US11279707B2, “NEK inhibitors and methods of use” (DANA-FARBER CANCER INSTITUTE, INC., priority 2017, dated 2022).

Tests used:
Assay type in all cases: biochemical
[1] = target: NEK7 (Homo sapiens, UniProt Q8TDX7); experiment: kinase inhibition, NEK7
[2] = target: T1, AXL (Homo sapiens, UniProt P30530); experiment: kinase inhibition, AXL
T1 sequence (P30530 26-894): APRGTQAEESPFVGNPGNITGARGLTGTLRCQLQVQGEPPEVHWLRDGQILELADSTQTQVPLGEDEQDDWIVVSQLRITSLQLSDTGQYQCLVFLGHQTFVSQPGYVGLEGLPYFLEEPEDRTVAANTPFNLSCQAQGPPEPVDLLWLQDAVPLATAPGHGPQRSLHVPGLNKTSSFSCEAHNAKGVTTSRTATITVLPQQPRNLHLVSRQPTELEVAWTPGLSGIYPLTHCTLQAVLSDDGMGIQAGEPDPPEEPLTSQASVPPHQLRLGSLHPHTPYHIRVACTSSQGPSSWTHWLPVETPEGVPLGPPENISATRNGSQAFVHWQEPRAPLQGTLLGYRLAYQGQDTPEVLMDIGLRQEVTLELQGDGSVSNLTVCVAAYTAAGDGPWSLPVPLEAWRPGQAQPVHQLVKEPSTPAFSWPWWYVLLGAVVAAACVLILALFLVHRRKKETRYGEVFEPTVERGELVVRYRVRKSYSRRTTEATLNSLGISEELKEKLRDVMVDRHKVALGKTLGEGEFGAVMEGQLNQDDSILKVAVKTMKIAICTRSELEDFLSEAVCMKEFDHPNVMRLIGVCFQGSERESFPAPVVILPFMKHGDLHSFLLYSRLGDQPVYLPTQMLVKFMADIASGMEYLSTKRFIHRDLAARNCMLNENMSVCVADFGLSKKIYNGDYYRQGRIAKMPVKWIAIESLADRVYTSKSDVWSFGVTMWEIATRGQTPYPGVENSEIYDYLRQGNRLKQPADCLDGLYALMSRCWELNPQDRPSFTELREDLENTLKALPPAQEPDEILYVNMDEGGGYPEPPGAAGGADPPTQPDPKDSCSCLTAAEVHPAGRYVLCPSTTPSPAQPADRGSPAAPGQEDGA

[3] = target: CLK; experiment: kinase inhibition, CLK
[4] = target: GSK3B (Homo sapiens, UniProt P49841); experiment: kinase inhibition, GSK3B
Sequence of GSK3B (P49841 whole entry, species assumed): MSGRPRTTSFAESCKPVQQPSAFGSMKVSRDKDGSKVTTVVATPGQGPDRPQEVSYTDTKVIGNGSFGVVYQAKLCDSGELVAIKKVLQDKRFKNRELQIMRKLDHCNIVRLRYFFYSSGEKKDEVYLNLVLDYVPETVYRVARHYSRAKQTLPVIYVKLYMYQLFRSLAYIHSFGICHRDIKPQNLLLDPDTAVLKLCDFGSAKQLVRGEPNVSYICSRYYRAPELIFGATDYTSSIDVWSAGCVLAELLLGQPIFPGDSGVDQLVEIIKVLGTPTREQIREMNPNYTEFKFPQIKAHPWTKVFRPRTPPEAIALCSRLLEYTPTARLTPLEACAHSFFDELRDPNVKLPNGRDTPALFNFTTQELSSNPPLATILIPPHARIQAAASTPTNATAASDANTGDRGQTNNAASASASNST

[5] = target: T2, NEK2 (Homo sapiens, UniProt P51955); experiment: kinase inhibition, NEK2
T2 sequence (P51955 1-445): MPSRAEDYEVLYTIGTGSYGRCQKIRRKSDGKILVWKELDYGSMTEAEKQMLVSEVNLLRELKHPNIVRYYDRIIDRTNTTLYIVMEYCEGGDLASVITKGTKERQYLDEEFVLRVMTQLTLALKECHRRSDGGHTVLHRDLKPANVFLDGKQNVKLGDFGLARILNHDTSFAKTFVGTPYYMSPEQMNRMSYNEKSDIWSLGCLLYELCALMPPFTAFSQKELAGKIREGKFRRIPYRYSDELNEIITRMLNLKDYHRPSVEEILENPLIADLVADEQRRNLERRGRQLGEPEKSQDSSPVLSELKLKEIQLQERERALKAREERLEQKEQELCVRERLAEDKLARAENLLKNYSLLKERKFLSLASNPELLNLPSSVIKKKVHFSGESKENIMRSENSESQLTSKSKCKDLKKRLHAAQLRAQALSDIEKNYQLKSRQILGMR

[6] = target: T3, MERTK (Homo sapiens, UniProt Q12866); experiment: kinase inhibition, MERTK
T3 sequence (Q12866 21-999): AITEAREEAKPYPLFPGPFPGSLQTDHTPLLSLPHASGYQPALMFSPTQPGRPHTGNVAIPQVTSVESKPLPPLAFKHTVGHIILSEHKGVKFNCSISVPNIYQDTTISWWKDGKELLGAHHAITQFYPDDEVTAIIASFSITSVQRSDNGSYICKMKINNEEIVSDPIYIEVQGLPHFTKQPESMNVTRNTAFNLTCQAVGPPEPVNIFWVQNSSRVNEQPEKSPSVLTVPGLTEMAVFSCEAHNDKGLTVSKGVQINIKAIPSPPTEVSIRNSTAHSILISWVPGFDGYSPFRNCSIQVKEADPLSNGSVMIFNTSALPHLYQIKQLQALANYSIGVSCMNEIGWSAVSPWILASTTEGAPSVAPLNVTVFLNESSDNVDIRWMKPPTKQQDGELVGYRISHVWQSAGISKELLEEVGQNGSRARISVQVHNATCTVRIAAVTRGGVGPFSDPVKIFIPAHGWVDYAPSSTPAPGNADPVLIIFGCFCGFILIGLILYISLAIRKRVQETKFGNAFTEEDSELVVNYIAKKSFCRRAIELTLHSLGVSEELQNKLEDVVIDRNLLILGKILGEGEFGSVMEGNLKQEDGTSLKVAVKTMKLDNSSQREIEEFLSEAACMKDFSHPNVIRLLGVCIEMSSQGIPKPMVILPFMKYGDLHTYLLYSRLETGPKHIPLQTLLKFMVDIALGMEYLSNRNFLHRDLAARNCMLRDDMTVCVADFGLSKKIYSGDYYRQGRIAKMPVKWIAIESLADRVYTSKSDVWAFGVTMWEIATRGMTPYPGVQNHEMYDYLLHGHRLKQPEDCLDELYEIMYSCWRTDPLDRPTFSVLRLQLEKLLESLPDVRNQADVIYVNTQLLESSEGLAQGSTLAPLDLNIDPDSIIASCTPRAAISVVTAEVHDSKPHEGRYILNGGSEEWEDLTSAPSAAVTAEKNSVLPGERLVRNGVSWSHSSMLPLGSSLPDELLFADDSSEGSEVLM

[7] = target: T4, NEK9 (Homo sapiens, UniProt Q8TD19); experiment: kinase inhibition, NEK9
T4 sequence (Q8TD19 1-979): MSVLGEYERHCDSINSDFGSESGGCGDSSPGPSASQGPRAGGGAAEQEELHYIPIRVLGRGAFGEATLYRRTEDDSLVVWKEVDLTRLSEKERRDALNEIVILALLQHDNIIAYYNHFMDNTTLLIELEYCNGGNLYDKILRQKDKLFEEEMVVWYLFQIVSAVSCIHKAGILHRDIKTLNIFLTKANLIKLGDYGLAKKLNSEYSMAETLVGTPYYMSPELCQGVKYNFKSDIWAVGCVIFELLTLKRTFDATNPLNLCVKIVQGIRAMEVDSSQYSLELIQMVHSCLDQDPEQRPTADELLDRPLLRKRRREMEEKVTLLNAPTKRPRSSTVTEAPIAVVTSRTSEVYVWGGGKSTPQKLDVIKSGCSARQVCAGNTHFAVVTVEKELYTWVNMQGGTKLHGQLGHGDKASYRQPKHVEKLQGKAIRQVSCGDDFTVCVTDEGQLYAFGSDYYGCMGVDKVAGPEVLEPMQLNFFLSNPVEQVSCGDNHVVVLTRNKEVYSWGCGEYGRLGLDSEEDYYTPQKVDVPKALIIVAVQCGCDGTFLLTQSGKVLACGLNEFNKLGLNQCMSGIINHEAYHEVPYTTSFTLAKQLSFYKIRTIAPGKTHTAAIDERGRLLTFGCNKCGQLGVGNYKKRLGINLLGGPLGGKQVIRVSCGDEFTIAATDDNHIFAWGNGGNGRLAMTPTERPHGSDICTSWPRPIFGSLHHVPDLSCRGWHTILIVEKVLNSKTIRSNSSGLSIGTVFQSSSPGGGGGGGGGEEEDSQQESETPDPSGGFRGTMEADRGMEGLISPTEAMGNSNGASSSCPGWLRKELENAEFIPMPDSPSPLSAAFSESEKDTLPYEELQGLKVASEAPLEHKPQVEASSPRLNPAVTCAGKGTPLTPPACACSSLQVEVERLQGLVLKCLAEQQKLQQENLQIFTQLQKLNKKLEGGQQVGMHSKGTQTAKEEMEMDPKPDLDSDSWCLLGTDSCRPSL

[8] = target: NEK6 (Homo sapiens, UniProt Q9HC98); experiment: kinase inhibition, NEK6
Sequence of NEK6 (Q9HC98 whole entry, species assumed): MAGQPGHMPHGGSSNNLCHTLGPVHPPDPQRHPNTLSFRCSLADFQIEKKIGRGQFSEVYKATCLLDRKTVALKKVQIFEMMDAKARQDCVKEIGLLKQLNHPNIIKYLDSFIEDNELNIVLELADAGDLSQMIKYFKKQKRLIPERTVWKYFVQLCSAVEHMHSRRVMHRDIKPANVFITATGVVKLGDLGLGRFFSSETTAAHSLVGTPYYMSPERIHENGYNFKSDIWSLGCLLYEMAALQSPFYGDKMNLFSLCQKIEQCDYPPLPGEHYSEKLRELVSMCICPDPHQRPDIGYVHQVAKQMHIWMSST

[9] = target: RSK1 (Homo sapiens, UniProt Q15418); experiment: kinase inhibition, RSK1
Sequence of RSK1 (Q15418 whole entry, species assumed): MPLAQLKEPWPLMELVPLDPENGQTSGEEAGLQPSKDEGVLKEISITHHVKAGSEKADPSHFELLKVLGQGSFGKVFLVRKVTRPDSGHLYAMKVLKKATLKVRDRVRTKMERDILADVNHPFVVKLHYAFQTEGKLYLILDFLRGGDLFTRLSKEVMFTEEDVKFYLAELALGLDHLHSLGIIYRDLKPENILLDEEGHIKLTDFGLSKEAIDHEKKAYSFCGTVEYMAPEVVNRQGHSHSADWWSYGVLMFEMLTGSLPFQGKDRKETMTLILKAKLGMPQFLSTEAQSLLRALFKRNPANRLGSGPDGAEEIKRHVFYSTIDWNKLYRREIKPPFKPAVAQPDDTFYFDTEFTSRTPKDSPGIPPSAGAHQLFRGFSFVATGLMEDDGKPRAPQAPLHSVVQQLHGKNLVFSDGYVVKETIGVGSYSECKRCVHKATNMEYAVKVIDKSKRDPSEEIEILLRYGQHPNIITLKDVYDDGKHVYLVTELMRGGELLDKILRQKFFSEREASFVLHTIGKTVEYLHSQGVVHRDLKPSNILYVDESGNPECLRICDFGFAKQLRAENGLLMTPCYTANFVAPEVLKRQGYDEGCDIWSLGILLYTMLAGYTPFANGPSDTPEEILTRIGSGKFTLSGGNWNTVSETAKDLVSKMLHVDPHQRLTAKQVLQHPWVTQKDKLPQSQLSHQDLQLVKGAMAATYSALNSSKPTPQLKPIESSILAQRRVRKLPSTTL

Sequence of NEK7 (Q8TDX7 whole entry, species assumed): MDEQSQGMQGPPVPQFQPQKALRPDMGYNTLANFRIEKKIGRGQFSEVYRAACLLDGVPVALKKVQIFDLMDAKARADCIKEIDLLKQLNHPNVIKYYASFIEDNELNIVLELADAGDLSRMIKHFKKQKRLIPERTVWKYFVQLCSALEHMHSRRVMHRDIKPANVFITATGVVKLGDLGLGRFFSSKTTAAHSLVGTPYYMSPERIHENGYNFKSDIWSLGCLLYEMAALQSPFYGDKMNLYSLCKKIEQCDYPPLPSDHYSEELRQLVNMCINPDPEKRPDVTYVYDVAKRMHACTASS

- IC50 [1]: 250 to 1000 nM
- IC50 [2]: 250 to 1000 nM
- IC50 [3]: 50 to 250 nM
- IC50 [4]: 250 to 1000 nM
- IC50 [5]: 50 to 250 nM
- IC50 [6]: 250 to 1000 nM
- IC50 [8]: 1000 to 5000 nM
- IC50 [9]: 250 to 1000 nM
Structure (SMILES): CN1CCN(c2ccc(Nc3ncc4c(n3)N3c5ccccc5CC3C(=O)N4C)cc2)CC1 (stereo not drawn) [Compound I-7]
- IC50 [7]: ≤ 50 nM
